Experimental data from patent US9708308B2, “Factor IXa inhibitors” (Merck Sharp & Dohme Corp., priority 2012, dated 2017).

Biological target: Factor IXa (Homo sapiens, UniProt P00740)
Assay: Determination of inhibitory activity against Factor IXa (cleavage of fluorescent peptide substrate)
Type: biochemical
Conditions: cleavage of fluorescent peptide CH3SO2-D-CHG-Gly-Arg-AFC, release of AFC; read-out: FIXa IC50
Excerpt: • (R)—N-(3-aminobenzo[d]isoxazol-6-yl)-2-hydroxy-2-((R)-4-(1-(6-methoxypyridazin-4-yl)-1H-pyrazol-3-yl)-6,6-dimethyl-3-oxomorpholin-2-yl)acetamide. Determination of Inhibitory Activity Against Factor IXa
Formation of a clot to stem bleeding at a site of blood vessel injury involves the coordinated activity of a group of plasma proteins that initiate and propagate fibrin formation and subsequently protect fibrin from premature degradation. Factor IX is a key component of the plasma system that forms a fibrin clot at a site of vascular injury. The activity of Factor IXa is measured by monitoring the cleavage of the fluorescent peptide, CH3SO2-D-CHG-Gly-Arg-AFC.AcOH (“CHG” is cyclohexyl-glycine and “AFC” is trifluoro aminomethyl coumarin). Factor IXa cleaves the amide bond between Arg and AFC, thereby releasing the AFC fluorophore. The free AFC can be detected with a fluorescence detector at an excitation wavelength of 405 nm and emission wavelength of 510 nm.

Sequence of Factor IXa (P00740 227-461 limits assumed): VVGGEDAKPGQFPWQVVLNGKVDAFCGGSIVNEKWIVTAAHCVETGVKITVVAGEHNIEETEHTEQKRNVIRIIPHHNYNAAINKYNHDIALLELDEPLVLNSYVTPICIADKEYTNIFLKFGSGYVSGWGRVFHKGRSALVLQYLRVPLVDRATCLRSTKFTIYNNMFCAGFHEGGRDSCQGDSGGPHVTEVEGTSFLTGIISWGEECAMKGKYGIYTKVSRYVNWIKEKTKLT
Sequence of Factor IXa (P00740 47-191 partner limits assumed): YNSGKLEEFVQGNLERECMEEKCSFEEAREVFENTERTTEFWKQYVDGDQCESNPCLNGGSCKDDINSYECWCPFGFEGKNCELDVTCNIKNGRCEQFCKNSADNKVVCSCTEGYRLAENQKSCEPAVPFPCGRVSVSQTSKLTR

SMILES	IC50
COc1cc(-n2ccc(N3CCO[C@H]([C@@](C)(O)C(=O)Nc4ccc5c(N)noc5c4)C3=O)n2)ccn1 [Example 1, (2R)—N-(3-Amino-1,2-benzoxazol-6-yl)-2-hydroxy-2-[(2R)-4-[1-(2-methoxy-4-pyridyl)pyrazol-3-yl]-3-oxo-morpholin-2-yl]propanamide]	160 nM
Cc1cc(N2CCO[C@H]([C@@](C)(O)C(=O)Nc3ccc4c(N)noc4c3)C2=O)nn1-c1cnnc(C#N)c1 [Example 3]	68.4 nM
CCOc1cc(-n2ccc(N3CCO[C@H]([C@@](C)(O)C(=O)Nc4ccc5c(N)noc5c4)C3=O)n2)cnn1 [Example 4]	23.2 nM
C[C@](O)(C(=O)Nc1ccc2c(N)noc2c1)[C@H]1OCCN(c2ccn(-c3cnnc(C(N)=O)c3)n2)C1=O [Example 5, 5-(3-((R)-2-((R)-1-((3-Aminobenzo[d]isoxazol-6-yl)amino)-2-hydroxy-1-oxopropan-2-yl)-3-oxomorpholino)-1H-pyrazol-1-yl)pyridazine-3-carboxamide]	20.2 nM
C[C@](O)(C(=O)Nc1ccc2c(N)noc2c1)[C@H]1OCCN(c2ccn(-c3cnnc(OC(CO)CCl)c3)n2)C1=O (stereo partly drawn) [Example 6, (2R)—N-(3-Aminobenzo[d]isoxazol-6-yl)-2-((2R)-4-(1-(6-((1-chloro-3-hydroxypropan-2-yl)oxy)pyridazin-4-yl)-1H-pyrazol-3-yl)-3-oxomorpholin-2-yl)-2-hydroxypropanamide]	975 nM
C[C@](O)(C(=O)Nc1ccc2c(N)noc2c1)[C@H]1OCCN(c2ccn(-c3ccc(=O)n(C(F)F)c3)n2)C1=O [Example 7, (R)—N-(3-Aminobenzo[d]isoxazol-6-yl)-2-((R)-4-(1-(1-(difluoromethyl)-6-oxo-1,6-dihydropyridin-3-yl)-1H-pyrazol-3-yl)-3-oxomorpholin-2-yl)-2-hydroxypropanamide]	18.1 nM
C[C@](O)(C(=O)Nc1ccc2c(N)noc2c1)[C@H]1OCCN(c2ccn(-c3ccc(C#N)c(Cl)c3)n2)C1=O [Example 16, (R)—N-(3-aminobenzo[d]isoxazol-6-yl)-2-((R)-4-(1-(3-chloro-4-cyanophenyl)-1H-pyrazol-3-yl)-3-oxomorpholin-2-yl)-2-hydroxypropanamide]	137 nM
Cc1cc(-n2ccc(N3CCO[C@H]([C@@](C)(O)C(=O)Nc4ccc5c(N)noc5c4)C3=O)n2)ccn1 [Example 19, (R)—N-(3-aminobenzo[d]isoxazol-6-yl)-2-hydroxy-2-((R)-4-(1-(2-methylpyridin-4-yl)-1H-pyrazol-3-yl)-3-oxomorpholin-2-yl)propanamide]	71.9 nM

More lines, now with the values ahead:

IC50	SMILES
678 nM	C[C@](O)(C(=O)Nc1ccc2c(N)noc2c1)[C@H]1OCCN(c2ccn(-c3ccc(F)cc3)n2)C1=O [Example 13, (R)—N-(3-aminobenzo[d]isoxazol-6-yl)-2-((R)-4-(1-(4-fluorophenyl)-1H-pyrazol-3-yl)-3-oxomorpholin-2-yl)-2-hydroxypropanamide]
13.2 nM	C[C@](O)(C(=O)Nc1ccc2c(N)noc2c1)[C@H]1OCCN(c2ccn(-c3ccc(S(C)(=O)=O)cc3)n2)C1=O [Example 14, (R)—N-(3-aminobenzo[d]isoxazol-6-yl)-2-hydroxy-2-((R)-4-(1-(4-(methylsulfonyl)phenyl)-1H-pyrazol-3-yl)-3-oxomorpholin-2-yl)propanamide]
289 nM	C[C@](O)(C(=O)Nc1ccc2c(N)noc2c1)[C@H]1OCCN(c2ccn(-c3ccc(C(=O)O)cc3)n2)C1=O [Example 15, 4-(3-((R)-2-((R)-1-((3-aminobenzo[d]isoxazol-6-yl)amino)-2-hydroxy-1-oxopropan-2-yl)-3-oxomorpholino)-1H-pyrazol-1-yl)benzoic acid]
548 nM	C[C@](O)(C(=O)Nc1ccc2c(N)noc2c1)[C@H]1OCCN(c2nn(-c3ccc(F)cc3)cc2F)C1=O [Example 17, (R)—N-(3-aminobenzo[d]isoxazol-6-yl)-2-((R)-4-(4-fluoro-1-(4-fluorophenyl)-1H-pyrazol-3-yl)-3-oxomorpholin-2-yl)-2-hydroxypropanamide]
